Source: patent US20140072654A1, “CANCER WITH METABOLIC THERAPY AND HYPERBARIC OXYGEN” (priority 2011, published 2014)
Several values for one entry are separate records, joined by “and”; a condition that tells them apart may be missing. Equal values may be shown once. Entries after “also recorded” stand apart in the source; their conditions may differ.

Tests used:
[1] = system: rats exposed to hyperbaric oxygen (5 ATA O2); assay: CNS oxygen toxicity: latency to seizure (EEG) in rats in hyperbaric oxygen; assay type: in vivo, rat; conditions: for effect on latency to seizure / CNS-OT (words) / increase in latency to seizure (LS) compared to control: rats; for effect on latency to seizure / CNS-OT (words): 5 ATA O2, ~3 ml (~10 g/kg) gavage 30 min before HBO2; for increase in latency to seizure (LS) compared to control: 5 ATA O2, ~10 g/kg intragastric 30 min before dive, control water
Text: Hyperbaric Chamber HBO2 system consisted of two main elements: 1) a plexiglass chamber (˜3 liter capacity, Diamond Box, Buxco, Electronics Inc., model PLY3114), that housed the rat during the experiment, and 2) a hyperbaric chamber (Reimers System Inc.—7.8 ATA MWP), that contained the plexiglass chamber and functioned as the pressure vessel. Both chambers were connected to an air compressor (oil-less rotary scroll compressor—model DK6086, Powerex).
During each experiment (hyperbaric hyperoxia), both the main chamber and the animal chamber were filled with air (dive profile). Rats were placed into the plexiglass chamber and allowed ten minutes to acclimate, at which time the plexiglass chamber was flushed with 100% 02. The animal was then allowed 15 minutes to acclimate before both chambers were compressed to 5 ATA (58.8 PSIG) at a rate of 0.7 ATA/min. The outer chamber was pressurized using air (capacity ˜205 liters) to minimize the risk of an electrical-induced fire. Each experiment was visually monitored via a live camera. LS was calculated from the moment at which the internal and the external chambers reached 5 ATA until the onset of convulsions, identified as high-amplitude, high frequency spikes lasting 10 to 30 sec, followed by polyspikes and wave formation concurrent with tonic-clonic motions of forelimbs and head. After the onset of seizures, the plexiglass chamber was flushed with air to quickly terminate seizure, and both chambers decompressed to sea level. Decompression rate was 1 ATA/min. Rats were then allowed a 15 min recovery period in air at 1 ATA before being removed from the chamber.
The radiotelemetry system consisted of an implantable 4ET radio-transmitter able to amplify and broadcast signals via a receiver (DSI PhysioTel, model RPC-2) connected to an acquisition interface unit (ACQ 7700 Ponemah) via electrical penetrations in the wall of the hyperbaric chamber. The acquisition interface unit was connected to a computer for real time data collection and storage. The same acquisition unit also recorded chamber pressure and temperature, which were measured, respectively, by […] directly connected to the acquisition system via BNC (Bayonet Neill-Concelman) cables.
Anticonvulsant effect of supplemental ketones was tested in rats exposed to hyperbaric oxygen (5 ATA O2). The effects of ketone esters (KEs) in preventing CNS-OT in rats were assessed before, during and after HBO2 exposure by measuring various parameters.
Adult male Sprague-Dawley rats (n=60) rats (300-450 grams; 3 to 6 month old) were obtained from Harlan, anesthetized in 3-5% isoflurane (in 02) and implanted with a 4ET radio-transmitter (Data Sciences International, DSI) using sterile surgical technique. The rat chamber was ventilated with pure O2 while the hyperbaric chamber, containing the radio-receiver (DSI), was pressurized in parallel with air to 5 atmospheres absolute (ATA). One pair of leads (positive and negative poles) was implanted in the costal diaphragm at the junction with the abdominal wall for diaphragmatic electromyogram (dEMG) signals, one pair of electrodes was inserted in the pectoral muscle to acquire electrocardiogram (ECG) data, and two pairs of wires were embedded in the skull between Bregma and Lambda, with one lead on either side of midline for each pair (EEG recordings). The EMG wires were not inserted into crural diaphragmatic muscle because of the high risk of pneumothorax due to the thinness of the muscle (419 to 630 μm). 4ET radio-transmitters also monitored core body temperature and physical activity. Rats were weighed immediately before surgery and subsequently once every 7 days, just prior to the weekly exposures to HBO2. After surgery, every animal recovered for ≧1 week. The rats were food (not water) deprived for 18 hours prior to the start of the experiment.
In each case animals were gavaged about 30 minutes prior to diving. […]

[2] = Blood ketones and glucose after oral gavage in rats; assay type: in vivo, rat; conditions: for blood BHB level (words) / blood AcAc level / blood acetone level / effect on blood glucose: ~10 g/kg gavage; for blood BHB level (words): vs control water; for blood acetone level: 60 minutes; for effect on blood glucose: over 4 hrs, relative to water; for duration of elevation of blood ketones: single oral/intragastric administration
Protocol: Whole blood samples (10 μl) were acquired for analysis of glucose and BHB utilizing a commercially available glucose/ketone monitoring system (Nova Max® Plus) at time 0, 30, 60, 120, 180 and 240 min. In addition, heparinized blood samples (200 μl) were collected into Eppendorf tubes at time 0, 30, 60, 120, 180 and 240 min. Samples were processed for the detection and quantification of BHB, AcAc, and acetone. Briefly, samples were chilled on ice for 30 s, centrifuged in a micro-centrifuge (13,000 G) for 3-5 min and plasma (>100 μl), treated with reducing reagent of cold 0.2M sodium borodeuteride (NaBD4; Sigma, 205591, CAS 15681-89-7) dissolved in 0.1M NaOH (8.4 mg NaBD4 in 1 ml of 0.1M NaOH) and then immediately frozen on dry ice before storing at −80° C. Acetone was analyzed at the 60 minute time point, which was the predicted peak of blood AcAc levels (Desrochers et al. 1995). 300 μl of whole blood were collected in addition to the above collections, stabilized with cold 0.2M NaBD4, and then immediately frozen on dry ice. Samples were stored at −80° C. until analyzed for ketones. Internal standards of [^2H6]BHB or [^2H8]isopropanol were added to the treated plasma or blood samples (50 μl or 15 μl) and the BHB, AcAc (as M+1 of BHB) or acetone (as 2-propanol) metabolites were analyzed by gas chromatography-mass spectrometry (GC-MS) using an Agilent 5973 mass spectrometer, linked to a 6890 gas chromatograph equipped with an autosampler. Briefly, GC-MS conditions were either EI or CI mode (electron or chemical ionization mode); the samples were detected by selected ion monitoring as the BHB- and AcAc-trimethylsilyl derivatives (EI) or the derivative of acetone-pentafluorobenzoyl (CI).
KE and BD. […] Blood was collected and processed as described in the previous example.
Ketone measurements were taken at 30, 60, 120, 180 and 240 minutes. Blood plasma was treated with sodium borodeuteride (NaB2H4) to stabilize ketone concentration and then assayed by GC-MS. The rapid rise relating to blood ketones from BD-AcAc2 is due primarily from rapid desterfication in blood and tissues.

VM-M3 metastatic cancer = assay: Survival time in VM-M3 mouse model of metastatic cancer; assay type: in vivo; conditions: for increase in mean survival time: Example 5, compared to controls; for % increase in survival time: Example 5, vs control (SD)
VM-M3/Fluc tumors = assay: Tumor bioluminescence in VM-M3/Fluc mice; assay type: in vivo, mouse; conditions: for tumor growth / bioluminescence: VM-M3 mice vs controls; for whole body tumor bioluminescence (ROI), representative animal: day 21 after tumor cell inoculation
[3] = Acute ketosis with supplementation in healthy VM/Dk mice (blood glucose, blood βHB, urine AcAc after feeding); assay type: in vivo, mouse; conditions: for time after feeding to significant βHB elevation: after 8 hour fast; for ketone bodies elevated, βHB and AcAc: blood βHB and urine AcAc; for time for which blood glucose was significantly lowered: standard chow with ketone supplementation after 8 hour fast
Protocol: FIG. 34(A)-(C) are graphs showing effect of ketone supplementation on blood glucose, blood βHB, urine AcAc, and body weight in mice. (A-C) blood glucose; (B) blood levels of ketones; and (C) urine AcAc of healthy VM/Dk mice 0-12 hours after feeding following 8 hour fast. […] Error bars represent ±SEM.

[4] = rats; for decrease of blood pH compared to control after about 30 minutes / decrease of blood pH compared to control after about one hour: control pH ~7.5, mean
[5] = Blood glucose, blood βHB and body weight of VM-M3 survival study mice
[6] = single oral administration ~10 g/kg

| Molecule | blood BHB level (words) [2] | effect on latency to seizure / CNS-OT (words) [1] | blood BHB [2, 6] [mM] | blood AcAc level [2] | blood acetone level [2] | effect on blood glucose [2] | increase in mean survival time (VM-M3 metastatic cancer) | % increase in survival time (VM-M3 metastatic cancer) | tumor growth / bioluminescence (VM-M3/Fluc tumors) | whole body tumor bioluminescence (ROI), representative animal (VM-M3/Fluc tumors) | time after feeding to significant βHB elevation [3] [h] | ketone bodies elevated, βHB and AcAc [3] | time for which blood glucose was significantly lowered [3] [h] | blood pH change, mild nonpathological acidosis (FIG. 25) [4] | decrease of blood pH compared to control after about 30 minutes [4] | decrease of blood pH compared to control after about one hour [4] | increase in latency to seizure (LS) compared to control [1] | other results |
| --- | --- | --- | --- | --- | --- | --- | --- | --- | --- | --- | --- | --- | --- | --- | --- | --- | --- | --- |
| (R)-1,3-butanediol ester [BHB ester, reference compound] | elevated blood levels of B-hydroxybutyrate |  |  |  |  |  |  |  |  |  |  |  |  |  |  |  |  | effect on latency to seizure / CNS-OT (words) ([1]; listed as 1,3-BD BHB ester): lack of efficacy; effect on latency to seizure / CNS-OT (words) ([1]; listed as B-hydroxybutyrate ester): no effect on seizure latency |
| C[C@H](O)CCO [BD, R,S-1,3-butanediol, reference compound] | significant increase in BHB | did not delay CNS-OT; also recorded: did not increase LS | > 5 | only modest elevation in AcAc relative to KE; also recorded: low or undetectable | low or undetectable | no significant effect on blood glucose levels | approximately 16 days | 51% | profound effect | 1.739×10^6 | 1 | only elevated βHB | 8 | from 7.45 to 7.35 | 0.05 | 0.1 |  | effect on latency to seizure / CNS-OT (words) ([1]; listed as 1,3-BD): lack of efficacy; effect on latency to seizure / CNS-OT (words) ([1]; listed as 1,3-butanediol): no effect on seizure latency; blood BHB level (words) ([2]; listed as 1,3-butanediol): elevated blood levels of B-hydroxybutyrate |
| CC(=O)CC(=O)OCCC(C)OC(=O)CC(C)=O (stereo not drawn) [KE, R,S-1,3-butanediol acetoacetate diester] | significant increase in BHB and AcAc at 30 minutes |  | > 3 | increased significantly more; also recorded: significant increase in BHB and AcAc at 30 minutes | significantly higher at 60 minutes | no significant effect on blood glucose levels | approximately 22 days | 69% and 69.2* % | drastically reduced tumor progression | 1.536×10^6 | 4 | elevated both βHB and AcAc | 4 | from 7.45 to 7.35 | 0.05 | 0.1 | 574±115% and 574±116% | effect on latency to seizure / CNS-OT (words) ([1]; listed as 1,3-BD AcAc diester): delays CNS-OT; effect on latency to seizure / CNS-OT (words) ([1]; listed as BD-AcAc2): most effective KE against CNS-OT; also recorded: significantly increased the latency time to seizure; increase in latency to seizure (LS) compared to control ([1]; listed as BD-AcAc2): > 570%; increase in latency to seizure (LS) compared to control ([1]; listed as dKE): 570%; total ketones about 30 minutes after gavage ([2]; 10 g/kg gavage): > 5 mM; blood AcAc [2, 6]: > 3 mM; sustained elevation of total ketones ([2]; single oral administration, for over 4 hrs): > 6 mM; duration of elevation of blood ketones [2]: 4 h and > 4 h; duration of elevation of blood ketones ([2]; listed as BD-AcAc2): over 4 h; blood acetone ([2]; within about 60 minutes after single oral administration): ~0.7 mM; effect on blood glucose ([2]; listed as BD-AcAc2): does not elevate blood glucose; Mean survival (VM-M3 metastatic cancer; Example 5, supplemental ketones, control (SD) 31.2): 52.8 days; increase in blood pO2 levels ([4]; sustained): approximately 30%; blood glucose vs controls [5]: lower blood glucose; blood ketones (βHB) vs controls [5]: elevated blood βHB |
| CC(=O)CC(=O)OCCC(C)O (stereo not drawn) [BD-AcAc, R,S-1,3-butanediol acetoacetate monoester] |  | significantly increased the latency time to seizure |  |  |  |  |  |  |  |  |  |  |  |  |  |  | 285% | latency time to seizure, individual rat (EEG) ([1]; 5 ATA O2 (60 PSI), same rat 8 minutes without ketone ester): 110 min; effect on latency to seizure / CNS-OT (words) ([1]; listed as 1,3-BD AcAc monoester): delays CNS-OT |
